Data on 17 molecules can be found in patent publication US8906952B2, “Indole derivative or pharmaceutically acceptable salt thereof, preparation method thereof, and pharmaceutical composition for preventing or treating metabolic diseases containing same as active ingredient” (Korea Research Institute of Bioscience and Biotechnology, priority 2011, dated 2014).

Read-outs that look alike come from different tables or passages of the source.

What all share (type): biochemical
For assay [1], the target named is T1, human DGAT1 (Homo sapiens, UniProt O75907).
T1 construct: made in house; host or cells: sf9 insect cells
T1 sequence (O75907 1-488): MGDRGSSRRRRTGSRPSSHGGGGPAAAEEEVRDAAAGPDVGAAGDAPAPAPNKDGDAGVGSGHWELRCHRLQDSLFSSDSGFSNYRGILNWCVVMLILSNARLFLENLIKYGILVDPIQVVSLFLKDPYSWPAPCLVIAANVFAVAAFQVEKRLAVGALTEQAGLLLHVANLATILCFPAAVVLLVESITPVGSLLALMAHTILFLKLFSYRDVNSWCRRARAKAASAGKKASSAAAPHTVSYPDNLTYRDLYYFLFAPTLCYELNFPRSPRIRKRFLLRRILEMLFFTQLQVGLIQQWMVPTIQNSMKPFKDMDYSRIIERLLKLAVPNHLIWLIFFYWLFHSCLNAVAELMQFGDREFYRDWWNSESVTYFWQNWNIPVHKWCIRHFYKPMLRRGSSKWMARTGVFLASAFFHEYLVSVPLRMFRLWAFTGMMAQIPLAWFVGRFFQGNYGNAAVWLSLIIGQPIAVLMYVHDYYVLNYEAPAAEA
Kind of assay: DGAT enzyme inhibition test, hDGAT1 enzyme from sf9 insect cells. As to conditions: enzyme from sf9 cells overexpressing hDGAT1; read-out: hDGAT-1 (sf9) IC50. The source says: (§1) To investigate inhibitory effect of the compounds of Examples 1-33 against DGAT enzyme activity, DGAT enzyme inhibition and DGAT2 selectivity were investigated using zymogen including:
(§2) 1) hDGAT1 and hDGAT2 enzymes, derived from insect cell overexpressing human DGAT1 and DGAT2 (‘sf9’), respectively,
(§3) To be specific, for the purpose of measuring human-derived DGAT enzyme inhibitory activity, using the zymogen, including enzymes derived from insect cell overexpressing human DGAT1 and DGAT2 (‘sf9’), microsomal protein isolated from human duodenal adenocarcinoma (‘Hutu 80’), and microsomal protein isolated from rat, and according to Coleman et al., (Methods Enzymol., 98-103, 1992), and substrate including 1,2-diacylglycerol(Sigma, D0138) and [^14C]palmitoyl-CoA (Amersham, CFA583), the amount of radiation of [^14C]triacylglycerol produced after enzymatic reaction was measured.
(§4) To be more specific, to the reaction solution containing 175 mM Tris-HCl (pH 8.0), 20 μl bovine serum albumin (10 mg/ml), 100 mM magnesium chloride, 30 μM [^14C]palmitoyl CoA (0.02 μCi, Amersham) and 200 μM 1,2-dioleoylglycerol, reagent dissolved in dimethylsulfoxide (10.0 μl) was added. After introducing 100 to 200 μg isolated microsomal protein and allowing the same to react at 25° C. for 10 min, the reaction was stopped by adding 1.5 ml stop solution (2-propanol:heptane:water=80:20:2, v:v:v). To isolate the product of the reaction (i.e., [^14C]triacylglycerol), 1 ml heptane and 0.5 ml distilled water were added and then decocted. After taking 1 ml supernatant, 2 ml alkaline ethanol solution (ethanol:0.5 N sodium hydroxide:water=50:10:40, v:v:v) were added and then decocted. After taking 0.65 ml supernatant from the decoction, the amount of radiation was measured with liquid scintillation counter (LSC). The DGAT inhibitory activity was calculated with Mathematical Expression 1 below:
(§5) T denotes cpm of experimental group in which the enzymatic reaction solution was treated with the sample,
(§6) C denotes cpm of control group in which the enzymatic reaction solution was not treated with the sample, and
(§7) B denotes cpm of control group treated with the sample without zymogen.

Assay [2] addresses T2, DGAT-1 (rat liver) (Rattus norvegicus, UniProt Q9ERM3).
T2 construct: microsomal protein isolated from rat; from tissue; host or cells: rat liver microsomes
T2 sequence (Q9ERM3 1-498): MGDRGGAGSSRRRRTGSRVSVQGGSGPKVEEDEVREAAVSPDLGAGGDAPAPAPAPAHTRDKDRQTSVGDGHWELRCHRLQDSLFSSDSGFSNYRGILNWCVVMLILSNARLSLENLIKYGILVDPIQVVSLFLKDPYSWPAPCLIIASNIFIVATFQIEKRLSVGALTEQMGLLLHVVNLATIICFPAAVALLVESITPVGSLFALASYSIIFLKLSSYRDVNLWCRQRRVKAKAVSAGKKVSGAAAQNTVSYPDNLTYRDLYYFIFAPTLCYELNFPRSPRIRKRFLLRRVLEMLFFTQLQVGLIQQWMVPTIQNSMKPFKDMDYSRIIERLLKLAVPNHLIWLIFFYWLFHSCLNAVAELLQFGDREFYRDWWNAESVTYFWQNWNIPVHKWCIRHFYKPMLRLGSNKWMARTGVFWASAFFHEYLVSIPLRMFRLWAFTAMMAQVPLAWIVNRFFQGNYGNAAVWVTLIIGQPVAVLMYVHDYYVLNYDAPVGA
Kind of assay: DGAT enzyme inhibition test, rat liver-derived DGAT enzyme. Particulars: rat liver microsomal protein.
Text: as §1
3) rat liver-derived DGAT enzyme.
as §3, §4, §5, §6, §7
Background: Microsomes from liver hold many membrane-bound enzymes, among them those of drug oxidation.

In assay [3] the target is T3, human DGAT2 (Homo sapiens, UniProt Q96PD7).
T3 construct: made in house; host or cells: sf9 insect cells
T3 sequence (Q96PD7 1-388): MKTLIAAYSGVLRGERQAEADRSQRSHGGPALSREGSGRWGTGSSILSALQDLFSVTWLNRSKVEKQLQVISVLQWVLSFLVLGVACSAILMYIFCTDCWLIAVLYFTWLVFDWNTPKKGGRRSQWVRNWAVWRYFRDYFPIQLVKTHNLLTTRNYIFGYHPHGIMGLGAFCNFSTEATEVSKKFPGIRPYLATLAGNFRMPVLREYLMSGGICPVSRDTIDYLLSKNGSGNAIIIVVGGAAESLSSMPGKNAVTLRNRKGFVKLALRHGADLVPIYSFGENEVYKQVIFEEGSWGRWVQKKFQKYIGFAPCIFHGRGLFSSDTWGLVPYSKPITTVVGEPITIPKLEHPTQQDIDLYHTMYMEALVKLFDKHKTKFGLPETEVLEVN
Kind of assay: DGAT enzyme inhibition test, hDGAT2 enzyme from sf9 insect cells (DGAT2 selectivity).
Text: as §1, §2, §3, §4, §5, §6, §7

Setting [4] is: 10 μM, enzyme from sf9 cells overexpressing hDGAT2, read-out: hDGAT-2 (sf9) inhibition rate(%)at 10 μM.
Setting [5] is: concentration of 10 μM, read-out: hDGAT2 inhibition.

For the molecule `CC(C)N(NC(=O)c1ccc(Br)cc1)C(=O)/C=C/c1cn(C(=O)OC(C)(C)C)c2ccccc12` [Example 13, (E)-tert-butyl 3-(3-(2-(4-bromobenzoyl)-1-isopropylhydrazinyl)-3-oxoprop-1-enyl)-1H-indole-1-carboxylate], the IC50 in assay [1] was found to be 20.4 µM; in assay [2], 9.1 µM. Further, the inhibition at 10 µM was 2.3% in assay [3] (setting [4]) and under 11% in assay [3] (setting [5]).
For `CC(C)N(NC(=O)c1ccc(Cl)cc1)C(=O)/C=C/c1cn(C(=O)OC(C)(C)C)c2ccccc12` [Example 14, (E)-tert-butyl 3-(3-(2-(4-chlorobenzoyl)-1-isopropylhydrazinyl)-3-oxoprop-1-enyl)-1H-indole-1-carboxylate] the same measures were 8.8 µM, 2.8 µM, under 0% and under 11%.
For `CC(C)N(NC(=O)c1cccc(F)c1)C(=O)/C=C/c1cn(C(=O)OC(C)(C)C)c2ccccc12` [Example 15, (E)-tert-butyl 3-(3-(2-(3-fluorobenzoyl)-1-isopropylhydrazinyl)-3-oxoprop-1-enyl)-1H-indole-1-carboxylate] the same measures were 20.4 µM, 0.4 µM, under 0% and under 11%.
With `CC(C)(C)OC(=O)n1cc(/C=C/C(=O)NNC(=O)c2ccccc2)c2ccccc21` [Example 16, (E)-tert-butyl 3-(3-(2-benzoylhydrazinyl)-3-oxoprop-1-enyl)-1H-indole-1-carboxylate], the concentration for half-maximal inhibition (IC50) is over 100 µM in assay [1] and 26.3 µM in assay [2]. Besides, in assay [3] (setting [4]), the inhibition at 10 µM turned out to be 3.7%.
On the same counts, the results for `CC(C)(C)OC(=O)n1cc(/C=C/C(=O)NNS(=O)(=O)c2ccccc2)c2ccccc21` [Example 17, (E)-tert-butyl 3-(3-oxo-3-(2-(phenylsulfonyl)hydrazinyl)prop-1-enyl)-1H-indole-1-carboxylate] are over 100 µM, 83.6 µM and under 0%.
For `COC(=O)COc1cccc(C(=O)NN(C(=O)/C=C/c2cn(C(=O)OC(C)(C)C)c3ccccc23)C(C)C)c1` [Example 18, (E)-tert-butyl 3-(3-(1-isopropyl-2-(3-(2-methoxy-2-oxoethoxy)benzoyl)hydrazinyl)-3-oxoprop-1-enyl)-1H-indole-1-carboxylate], the results for the IC50 in assay [1] and in assay [2] were over 100 µM and 20.3 µM, respectively. Also, the inhibition at 10 µM in assay [3] (setting [4]) was under 0%.
For `CC(C)N(NC(=O)c1cccc(OCC(=O)O)c1)C(=O)/C=C/c1cn(C(=O)OC(C)(C)C)c2ccccc12` [Example 19, (E)-2-(3-(2-(3-(1-(tert-butoxycarbonyl)-1H-indol-3-yl)acryloyl)-2-isopropylhydrazinecarbonyl)phenoxy)acetic acid], the IC50 is over 100 µM in assay [1] and 45.5 µM in assay [2]. Also, in assay [3] (setting [4]), the inhibition at 10 µM is under 0%.
For `CC(C)N(NC(=O)c1cccc(OCC(N)=O)c1)C(=O)/C=C/c1cn(C(=O)OC(C)(C)C)c2ccccc12` [Example 20, (E)-tert-butyl 3-(3-(2-(3-(2-amino-2-oxoethoxy)benzoyl)-1-isopropylhydrazinyl)-3-oxoprop-1-enyl)-1H-indole-1-carboxylate] the same measures were over 100 µM, over 100 µM and under 0%.
On to `CC(C)N(NC(=O)c1ccccc1)C(=O)CCc1cn(Cc2ccccc2)c2ccccc12` [Example 21, N′-(3-(1-benzyl-1H-indol-3-yl)propanoyl)-N′-isopropylbenzohydrazide], for which the IC50 is over 100 µM in assay [1] and 29.1 µM in assay [2]. The inhibition at 10 µM in assay [3] (setting [4]) came out at 1.3%.
On the same counts, the results for `CC(C)N(NC(=O)c1ccccc1)C(=O)/C=C/c1c[nH]c2ccccc12` [Example 22, (E)-N′-(3-(1H-indol-3-yl)acryloyl)-N′-isopropylbenzohydrazide] are over 100 µM, 33 µM and under 0%.
On the same counts, the results for `CC(C)N(NC(=O)c1ccccc1)C(=O)CCc1c[nH]c2ccccc12` [Example 23, N′-(3-(1H-indol-3-yl)propanoyl)-N′-isopropylbenzohydrazide] are 95.1 µM, 31.4 µM and under 0%.
For `CC(C)N(NC(=O)c1ccccc1)C(=O)CCc1cn(C(=O)OC(C)(C)C)c2ccccc12` [Example 24, tert-butyl 3-(3-(2-benzoyl-1-isopropylhydrazinyl)-3-oxopropyl)-1H-indole-1-carboxylate] the same measures were over 100 µM, 8.6 µM and under 0%.
Consider `CC(C)N(NC(=O)c1ccccc1)C(=O)/C=C/c1cn(C)c2ccccc12` [Example 25], for which the IC50 in assay [1] was determined as 28.3 µM; in assay [2], 9.3 µM. The inhibition at 10 µM in assay [3] (setting [4]) was under 0%.
Turning to `CC(C)N(NC(=O)c1ccccc1)C(=O)/C=C/c1cn(Cc2ccccc2)c2ccccc12` [Example 26, (E)-N′-(3-(1-benzyl-1H-indol-3-yl)acryloyl)-N′-isopropylbenzohydrazide], the 50% inhibitory concentration (IC50) in assay [1] was determined as 13.6 µM; in assay [2], 2.4 µM. The values for the inhibition at 10 µM in assay [3] (setting [4]) and in assay [3] (setting [5]) were 5% and under 11%, respectively.
On the same counts, the results for `CC(C)=CCn1cc(/C=C/C(=O)N(NC(=O)c2ccccc2)C(C)C)c2ccccc21` [Example 27, (E)-N′-isopropyl-N′-(3-(1-(3-methylbut-2-enyl)-1H-indol-3-yl)acryloyl)benzohydrazide] are 11.8 µM, 0.5 µM, 1.2% and under 11%.
On the same counts, the results for `CC(C)N(NC(=O)c1ccccc1)C(=O)/C=C/c1cn(CC2CC2)c2ccccc12` [Example 28, (E)-N′-(3-(1-(cyclopropylmethyl)-1H-indol-3-yl)acryloyl)-N′-isopropylbenzohydrazide] are 41.6 µM, 2.9 µM, under 0% and under 11%.
On the same counts, the results for `CC(C)N(NC(=O)c1ccccc1)C(=O)/C=C/c1cn(C2CC2)c2ccccc12` [Example 29, (E)-N′-(3-(1-cyclopropyl-1H-indol-3-yl)acryloyl)-N′-isopropylbenzohydrazide] are 24.6 µM, 1.9 µM, under 0% and under 11%.

Usually IC50 stands for the point on the concentration scale where inhibition reaches its midpoint. What is called inhibition is the share of the control response that was lost under treatment.
